Measurements taken from publication PMC12785453, “Oral Fluid Concentrations and Pharmacological Effects of Clephedrone and Methylone in Humans” (International Journal of Molecular Sciences, 2025).
Like-named read-outs stand apart in the source and are kept apart here.

How the values were obtained:
[1] = cited from earlier work
[2] = system: healthy male participants; experiment: Subjective effects, visual analog scales (VAS), methylone trial; type: in vivo, humans
Method: Methylone pharmacology was evaluated in a study designed as a randomized, double-blind, placebo-controlled, crossover clinical trial. Four pilot studies were conducted administering methylone at oral doses of 50 (n = 3), 100 (n = 6), 150 (n = 5), and 200 mg (n = 7). Participants attended 3 experimental sessions separated by a one-week wash-out period and received two doses of methylone (one dose per experimental session) compared to placebo, except in the last pilot study in which participants received one dose of methylone, compared to MDMA and placebo. However, in this manuscript, only the results corresponding to the highest methylone doses (n = 12; 150 and 200 mg; mean dose = 179.2 mg) are presented, to enable comparison with clephedrone self-administration. Participants were recruited by word of mouth in the volunteer database of the clinical pharmacology unit.
Methylone hydrochloride of high purity in powder form was acquired from LGC Standards (Teddington, UK) for the controlled study. The Pharmacy Department of the Hospital Universitari Germans Trias i Pujol was responsible for manufacturing, storing, and dispensing identical and opaque soft gelatin capsules containing 50 mg of methylone or a placebo (maltodextrin). Treatment consisted of 5 capsules that combined methylone and/or a placebo to reach the target dose. Details can be found in the previous article.
Subjective effects were evaluated with visual analog scales (VAS), the short form of the Addiction Research Center Inventory (ARCI), and the Evaluation of Subjective Effects of Substances with Abuse Potential questionnaire (VESSPA-SSE). In addition, the Sensitivity to Drug Reinforcement Questionnaire (SDRQ) and a pharmacological identification class questionnaire were used in the controlled study administering methylone.
VAS encompassed several adjectives that participants had to rate from “not at all” (0 mm) to “extremely” (100 mm) according to their sensations. This scale included 28 items: intensity, stimulated, high, good effects, bad effects, liking, changes in distances, changes in colors, changes in shapes, changes in lights, hallucinations (seeing lights or spots), hallucinations (seeing things, animals, insects, or people), changes in hearing, hallucinations (hearing sounds or voices), drowsiness, concentration, dizziness, confusion, different or changed body feeling, unreal body feeling, different surroundings, unreal surroundings, open, trust, feeling close to others, I want to be with other people, I want to hug someone, sexual desire, and sexual arousal.
Participants included in the naturalistic clephedrone study completed VAS at baseline, 0.50, 1, 1.5, 2, 3, 4, and 5 h, and ARCI and VESSPA at baseline, 1, 2, 3, 4, and 5 h after self-administering clephedrone. In the controlled study, VAS was performed at baseline and 0.25, 0.50, 0.75, 1, 1.5, 2, 3, 4, 6, 8, 10, and 24 h, and ARCI and VESSPA at baseline and 1, 2, 3, 4, 6, 8, and 10 h after administering methylone. Participants completed SDRQ and VAS sexual desire and arousal at baseline, 1 and 10 h, and the pharmacological class identification questionnaire at 8 h.
For statistical analysis, values of physiological (SBP, DBP, HR, and T) and subjective effects (VAS, ARCI, and VESSPA-SSE) were baseline–adjusted. Maximum effects (Emax) and the time needed to reach maximum effects (Tmax) were determined, and the area under the curve up to 5 h (AUC0–5h) for clephedrone and up to 6 h (AUC0–6h) for methylone was calculated using the trapezoidal rule. Emax and AUC values are presented as mean ± standard deviation, whereas Tmax is presented in median (range).
To find possible significant changes through the time course compared to baseline, a Dunnett multiple comparison test was carried out to compare each time point with baseline in both drug conditions. […]

[3] = 150 or 200 mg oral, n=12, listed as methylone
[4] = AUC0–6h, 150 or 200 mg oral, n=12

Q: Which results are given for `CNC(C)C(=O)c1ccc(Cl)cc1` (stereo not drawn) [Clephedrone, 4-chloromethcathinone]?
A: Blood concentrations, mean ([1]; fatal cases): 547 ng/mL; Blood concentrations, mean ([1]; traffic controls, non-fatal cases (n = 9)): 21.1 ng/mL

Q: Which results are given for `CNC(C)C(=O)c1ccc2c(c1)OCO2` (stereo not drawn) [Methylone, 3,4-methylenedioxy-N-methylcathinone]?
A: VAS Bad effects Emax ([2]; 150 or 200 mg oral, n=12): 0.17 ± 0.58 mm; VAS Changes in colors Emax ([2]; 150 or 200 mg oral, n=12): 0.00 ± 0.00 mm; VAS Changes in colors Tmax ([2]; 150 or 200 mg oral, n=12): 0.0 (0.0–0.0) h; VAS Changes in distances Emax ([2]; 150 or 200 mg oral, n=12): 1.58 ± 5.48 mm; VAS Changes in distances Tmax ([2]; 150 or 200 mg oral, n=12): 0.0 (0.0–1.0) h; VAS Changes in hearing Emax ([2]; 150 or 200 mg oral, n=12): 0.42 ± 1.44 mm; VAS Changes in hearing Tmax ([2]; 150 or 200 mg oral, n=12): 0.0 (0.0–0.5) h; VAS Changes in lights Emax ([2]; 150 or 200 mg oral, n=12): 0.00 ± 0.00 mm; VAS Changes in lights Tmax ([2]; 150 or 200 mg oral, n=12): 0.0 (0.0–0.0) h; VAS Concentration Emax ([2]; 150 or 200 mg oral, n=12): 2.50 ± 4.21 mm; VAS Confusion Emax ([2]; 150 or 200 mg oral, n=12): 1.33 ± 2.57 mm; VAS Different or changed body feeling Emax ([2]; 150 or 200 mg oral, n=12): 12.25 ± 10.68 mm; VAS Different surroundings Emax ([2]; 150 or 200 mg oral, n=12): 0.33 ± 1.15 mm; VAS Dizziness Emax ([2]; 150 or 200 mg oral, n=12): 3.08 ± 5.33 mm; VAS Drowsiness Emax ([2]; 150 or 200 mg oral, n=12): 10.17 ± 16.16 mm; VAS Feeling close to others Emax ([2]; 150 or 200 mg oral, n=12): 15.92 ± 19.97 mm; VAS Good effects Emax ([2]; 150 or 200 mg oral, n=12): 29.75 ± 21.60 mm; VAS High Emax ([2]; 150 or 200 mg oral, n=12): 26.67 ± 18.12 mm; VAS I want to be with other people Emax ([2]; 150 or 200 mg oral, n=12): 17.42 ± 20.62 mm; VAS I want to hug someone Emax ([2]; 150 or 200 mg oral, n=12): 15.33 ± 21.76 mm; VAS Intensity Emax ([2]; 150 or 200 mg oral, n=12): 25.17 ± 18.95 mm; VAS Liking Emax ([2]; 150 or 200 mg oral, n=12): 30.33 ± 23.26 mm; VAS Open Emax ([2]; 150 or 200 mg oral, n=12): 15.67 ± 19.21 mm; VAS Sexual arousal Emax ([2]; 150 or 200 mg oral, n=12): 0.50 ± 1.45 mm; VAS Sexual desire Emax ([2]; 150 or 200 mg oral, n=12): 1.08 ± 2.07 mm; VAS Trust Emax ([2]; 150 or 200 mg oral, n=12): 15.92 ± 20.07 mm; VAS Unreal body feeling Emax ([2]; 150 or 200 mg oral, n=12): 0.00 ± 0.00 mm; VAS Unreal surroundings Emax ([2]; 150 or 200 mg oral, n=12): 0.00 ± 0.00 mm; VAS Feeling close to others Emax [2, 3]: > 15 mm; VAS Good effects Emax [2, 3]: exceeding 20 mm; VAS High Emax [2, 3]: exceeding 20 mm; VAS I want to be with other people Emax [2, 3]: > 15 mm; VAS I want to hug someone Emax [2, 3]: > 15 mm; VAS Intensity Emax [2, 3]: exceeding 20 mm; VAS Liking Emax [2, 3]: exceeding 20 mm; VAS Open Emax [2, 3]: > 15 mm; VAS Stimulated Emax [2, 3]: exceeding 20 mm; VAS Trust Emax [2, 3]: > 15 mm; VAS Bad effects AUC0-5/6 h [2, 4]: 0.06 ± 0.22 mm·h; VAS Changes in colors AUC0-5/6 h [2, 4]: 0.00 ± 0.00 mm·h; VAS Changes in distances AUC0-5/6 h [2, 4]: 0.72 ± 2.49 mm·h; VAS Changes in hearing AUC0-5/6 h [2, 4]: 0.10 ± 0.36 mm·h; VAS Changes in lights AUC0-5/6 h [2, 4]: 0.00 ± 0.00 mm·h; VAS Concentration AUC0-5/6 h [2, 4]: 1.95 ± 3.58 mm·h; VAS Confusion AUC0-5/6 h [2, 4]: 1.46 ± 3.43 mm·h; VAS Different or changed body feeling AUC0-5/6 h [2, 4]: 7.96 ± 8.16 mm·h; VAS Different surroundings AUC0-5/6 h [2, 4]: 0.17 ± 0.58 mm·h; VAS Dizziness AUC0-5/6 h [2, 4]: 3.31 ± 6.88 mm·h; VAS Drowsiness AUC0-5/6 h [2, 4]: 19.98 ± 33.41 mm·h; VAS Feeling close to others AUC0-5/6 h [2, 4]: 14.20 ± 16.71 mm·h; VAS Good effects AUC0-5/6 h [2, 4]: 26.38 ± 22.79 mm·h; VAS High AUC0-5/6 h [2, 4]: 22.85 ± 18.54 mm·h; VAS I want to be with other people AUC0-5/6 h [2, 4]: 16.94 ± 19.79 mm·h; VAS I want to hug someone AUC0-5/6 h [2, 4]: 14.27 ± 19.51 mm·h; VAS Intensity AUC0-5/6 h [2, 4]: 20.30 ± 18.35 mm·h; VAS Liking AUC0-5/6 h [2, 4]: 28.45 ± 24.43 mm·h; VAS Open AUC0-5/6 h [2, 4]: 15.04 ± 17.47 mm·h; VAS Sexual arousal AUC0-5/6 h [2, 4]: 2.50 ± 7.23 mm·h; VAS Sexual desire AUC0-5/6 h [2, 4]: 5.42 ± 10.33 mm·h; VAS Stimulated AUC0-5/6 h [2, 4]: 20.30 ± 18.35 mm·h; VAS Trust AUC0-5/6 h [2, 4]: 15.08 ± 18.74 mm·h; VAS Unreal body feeling AUC0-5/6 h [2, 4]: 0.00 ± 0.00 mm·h; VAS Unreal surroundings AUC0-5/6 h [2, 4]: 0.00 ± 0.00 mm·h; Time of peak pharmacological effects ([2]; oral): 0.75–1 h
